Legend:
Format in all cases: cell-based
[1] = tested on: esophageal (WHCO5) cancer cell line; test: ADAM10 biological activity, EC50 in WHCO5 cells
[2] = tested on: cervical (HeLa) cancer cell line; test: ADAM10 biological activity, EC50 in HeLa cells
[3] = tested on: esophageal (WHCO5) cancer cell line; test: Radioactivity uptake of ^123I radiolabeled ADAM10 inhibitor in WHCO5 cells; settings: 3 mCi (title); for Average counts per min: 1 h incubation; for A(0) per well × Eff corr: decay corrected
[4] = tested on: cervical (HeLa) cancer cell line; test: Radioactivity uptake of ^123I radiolabeled ADAM10 inhibitor in HeLa cells; settings: for uptake (in words): Table 1 / FIG. 2 experiment
Method: (§1) In order to test the biological activity of the radiolabeled compound in vitro, two cell lines were chosen as esophageal (WHCO5) and cervical (HeLa) cancer cell lines (using [^123I]Nal as the control) and the radioactivity uptake was measured using a bore-hole or scintillation counter. […] The well plates were incubated for one hour in a humidified CO2 incubator at 37° C. The measurements were performed with a ^123I Multi Channel Analyzer, and during the incubation time, a calibration and counting efficiency determination was carried out on the channel.^33
(§2) After the one-hour incubation period, the growth medium was aspirated, leaving the adherent cell monolayers intact and the cell cultures rinsed twice with cold PBS to remove any residual extracellular radioactivity. The cell monolayers were lysed with 1 mL 1M NaOH, and 1 mL of each lysed suspension was transferred to a clean test tube. The data is presented as an average of triplicates and was corrected for ^123I decay using Eff Corr as the correcting factor, which considers the half-life and decay of the radionuclide over a specific time interval.
(§3) […] Data represents an average and standard deviation of 12 replicates using 0.3 μCi of ^123I-SN-311 and 200000 cells.

[5] = tested on: cervical (HeLa) cancer cell line; test: as above; settings: 3 mCi (title); for Average counts per min: 1 h incubation; for A(0) per well × Eff corr: decay corrected
[6] = tested on: esophageal (WHCO5) cancer cell line; test: Radioactivity uptake of ^123I radiolabeled ADAM10 inhibitor in WHCO5 cells; settings: for uptake (in words): WHCO5, Table 1 / FIG. 2 experiment
Method: as §1, §2, §3

SMILES	Bq per well ([3]; WHCO5, 50000 cells)	Average counts per min ([3]; WHCO5, 50000 cells)	A(0) per well × Eff corr ([3]; WHCO5, 50000 cells)	Bq per well ([3]; WHCO5, 100000 cells)	Average counts per min ([3]; WHCO5, 100000 cells)	A(0) per well × Eff corr ([3]; WHCO5, 100000 cells)	Bq per well ([3]; WHCO5, 150000 cells)	Average counts per min ([3]; WHCO5, 150000 cells)	A(0) per well × Eff corr ([3]; WHCO5, 150000 cells)	Bq per well ([3]; WHCO5, 200000 cells)	Average counts per min ([3]; WHCO5, 200000 cells)	A(0) per well × Eff corr ([3]; WHCO5, 200000 cells)	uptake (in words) [4]	Bq per well ([5]; 50000 cells)	Average counts per min ([5]; 50000 cells)	A(0) per well × Eff corr ([5]; 50000 cells)	Bq per well ([5]; 100000 cells)	Average counts per min ([5]; 100000 cells)	A(0) per well × Eff corr ([5]; 100000 cells)	Bq per well ([5]; 150000 cells)	other results
CNC(=O)[C@@H](NC(=O)[C@H](CCCc1ccccc1)[C@@H](C)N(O)C=O)C(C)(C)C [SN-311]	–	–	–	–	–	–	–	–	–	–	–	–	–	–	–	–	–	–	–	–	EC50 compared with G1254023X [1]: fall within the 95% confidence interval of that of G1254023X; EC50 compared with G1254023X [2]: fall within the 95% confidence interval of that of G1254023X
CNC(=O)C(NC(=O)C(CCCc1ccc([123I])cc1)C(C)N(O)C=O)C(C)(C)C (centres unmarked) [^123I-SN-311]	698 Bq	9337 counts per min	41898	988 Bq	13207 counts per min	59265	1202 Bq	16075 counts per min	72135	1421 Bq	18996 counts per min	85240	clear uptake	455 Bq	6080 counts per min	27284	567 Bq	7582 counts per min	34023	691 Bq	uptake of the radiolabeled compound ([4]; 0.3 μCi per well, 200000 cells, average of 12 replicates): 81.76 Bq; Average counts per min ([5]; 150000 cells): 9236 counts per min; A(0) per well × Eff corr ([5]; 150000 cells): 41445; Bq per well ([5]; 200000 cells): 864 Bq; Average counts per min ([5]; 200000 cells): 11555 counts per min; A(0) per well × Eff corr ([5]; 200000 cells): 51852; uptake of the radiolabeled compound ([6]; WHCO5, 0.3 μCi per well, 200000 cells, average of 12 replicates): 127.63 Bq; uptake (in words) [6]: clear uptake
[123I-].[Na+] [[^123I]NaI, reference compound]	297 Bq	3968 counts per min	17807	308 Bq	4116 counts per min	18470	317 Bq	4239 counts per min	19021	357 Bq	4772 counts per min	21415	minimal uptake	148 Bq	1974 counts per min	8857	149 Bq	1991 counts per min	8934	173 Bq	Average counts per min ([5]; 150000 cells): 2308 counts per min; A(0) per well × Eff corr ([5]; 150000 cells): 10355; Bq per well ([5]; 200000 cells): 161 Bq; Average counts per min ([5]; 200000 cells): 2147 counts per min; A(0) per well × Eff corr ([5]; 200000 cells): 9635; uptake (in words) [6]: minimal uptake

Source: patent US20230364272A1, “THERANOSTIC COMPOUNDS” (NRF ITHEMBA LABS, priority 2020, published 2023)
